The values that follow come from a melting point compilation (Tetko et al.; mined from patent text by program, amines drawn as free bases though some values may be those of a salt).

As for `NC(=O)N(O)CCNC(=O)Cc1ccccc1Nc1c(Cl)cccc1Cl`, the melting point – broadly, the temperature of the solid-liquid transition – was in the range of 187 to 189 °C. In the case of `CC(=O)C1=CC(C)(C)C=CC1` it was 27 to 30 °C; in that of `COc1cccc2c1nc(Cl)n2C`, 118 to 119 °C; in that of `CC(C)(O)c1ccc(CNC(=O)c2cccnc2Oc2cccc(S(C)(=O)=O)c2)cc1`, 51 to 53 °C. Regarding `Cc1c(C(=O)Nc2ccc(N3CCC(N4CCOCC4)CC3)c(C#N)c2)cnn1Cc1ccccc1`, the melting point is 155 °C.

`CCNC(=O)Nc1nc2cc(-c3cccnc3)cc(C(=O)OC)n2n1` gave a melting point of 211 to 213 °C. In turn, `O=C(CC1=CC(O)CC1=O)Oc1ccc2ccccc2c1` (stereo not given) came in with a melting point of 81 °C. In the case of `CN(C)CCNC(=O)Cn1c(-c2cccc(Cl)c2)nc2cccnc21` it was 124 to 125 °C. Consider `CCC(=O)N1CCCC2=C1CCc1cc(Cl)ccc12`, for which the melting point was 115 to 117 °C.

`N#Cc1cccc(C=Cc2ccc(Cl)cc2)n1` displayed a melting point of 113 to 115 °C.

For `Oc1ccc(C(=Cc2ccccc2)c2ccc(O)c(O)c2O)c(O)c1O`, the melting point fell in the range of 142 to 143 °C. Consider `CCSc1nc(C(C)(C)C)c[nH]1`, for which the melting point lay within 116 to 120 °C.

As to `Cc1c(Br)ccc(S(C)(=O)=O)c1C=NO`, the melting point fell in the range of 192 to 194 °C.

The compound `O=[N+]([O-])c1cccc(Nc2nc(Cl)nc(NC3CCCCCC3)n2)c1` gave a melting point of 82 °C. In the case of `O=C1CCCCC1C(C[N+](=O)[O-])c1ccc(C(F)(F)F)cc1` (racemic) it was 107 to 108 °C; in that of `Cc1cc(C2(C(F)(F)F)CC(c3ccc(S(C)=O)cc3)=NO2)ccc1NC(=O)c1cccc(I)c1C(=O)NC(C)C` (stereo not given), 134 to 152 °C; in that of `N#Cc1cc(C(O)CNC2CCCC2)ccc1N` (stereo not given), 158 to 160 °C. As to `CC(C)NS(=O)(=O)c1ccc(N2CCC(N3C(=O)OCc4ccccc43)CC2)c([N+](=O)[O-])c1`, the melting point turned out to be 168 °C. In the case of `Cc1cc2nc(NC3=NCCN3)[nH]c2cc1C` it was 266 °C.

The compound `COc1ccc(-c2nc(C(F)(F)F)cn2-c2ccc(C#N)cc2)cc1` returned a melting point of 146 to 148 °C. As for `NC(=O)c1ccc(-c2cnc3[nH]c(=O)n(CC4CCOCC4)c3n2)cc1`, the melting point lay within 273 to 275 °C.

On to `Cc1cc(C)c2c(c1)nc(N(CCN1CCOCC1)C1CCNCC1)n2Cc1nc(C)ccc1O`, for which the melting point was 226 °C. `CCOC(=O)c1cn(-c2nc(NCc3ccc(OC)cc3)c(F)cc2F)c2c(F)c(F)c(F)c(F)c2c1=O` returned a melting point of 203 to 208 °C. `Cc1nc(Cl)c([N+](=O)[O-])c(NC(C)C)n1` registered a melting point of 77 to 79 °C. In the case of `COCCNC(=O)c1ccc(/C=C/C(=O)O)cc1` it was 205 °C; in that of `NC(=O)CNC(=O)c1cccc(-c2cccc3cc(CCc4cccc(C(F)(F)F)c4)sc23)c1`, 153 to 154 °C. `O=C(O)c1nc2c(=O)[nH]c3cc(C(F)(F)F)ccc3n2c1CP(=O)(O)O` showed a melting point greater than 250 °C.

In the case of `CCOC(=O)CC[C@H](NC(=O)c1ccc(N)c(F)c1)C(=O)OCC`, the melting point is 92 to 97 °C. Turning to `COc1cccc(N2CCN(c3cc4c(cc3F)ncc3c4c(=O)c(C(=O)O)cn3C)CC2C)c1` (stereo not given), the melting point was 285 °C. The compound `Cc1ccc(NC(=O)OC2CCCCC2)cc1NC(=O)OC1CCCCC1` gave a melting point of 156 °C. In the case of `COc1ccc2ccnc(Cl)c2c1` it was 77 to 78 °C. The compound `CCOC(=O)c1cc2c(O)nncc2nc1Nc1ccccc1` gave a melting point of 257 to 260 °C. In turn, `CC(=O)OC1CSC(Oc2ccccc2-c2ccncc2)C(OC(C)=O)C1OC(C)=O` (stereo not given) displayed a melting point of 165 °C.

`Cc1cc(C)c(C)c(-c2cc3cnc(NCCCN4CCN(C)CC4)nc3nc2NC(=O)NC(C)(C)C)c1C` displayed a melting point of 185 to 198 °C. As for `Cc1ccc(C)c(S(=O)(=O)c2ccc(F)c3ccccc23)c1`, the figure is 142 to 143 °C.
